Reference: US20160038563A1, “MOLECULAR TARGETS FOR HEALING OR TREATING WOUNDS” (University College Cardiff Consultants Limited, priority 2010, published 2016)
Entries after “also recorded” stand apart in the source; their conditions may differ.

How the values were obtained:
[1] = test system: HaCaT cells; test: ECIS cell adhesion assay; assay type: cell-based, human
Excerpt: (§1) • 1. Cells and Human keratinocytes and melanoma Cells (HaCaT-from The German Cancer Institute/Cell Service, Germany and A431—from ATCC), human vascular endothelial cell, HECV (from Interlab, Italy) were used. Recombinant human HGF was from the research laboratory. nWASP inhibitors, Wiskostatin and 187-1 were from Merck Pharmaceuticals and TOCRIS, respectively. Tissue collection and preparation of RNA/cDNA bank from human wound/skin tissues. Fresh tissues from abnormal/chronic wounds (n=14), acute wounds (n=10) and normal skin from healthy volunteers (n=10) were collected under an approval from the local ethical committee (Ethical approval ID: 05/WSE03/92) and stored in −80° C. until use. Written informed consent was obtained from each patient who agreed for a biopsy to be taken. Tissues were frozen sectioned on a cryostat (Leica). A portion of the sections were kept for histological analysis. Approximate 20 sections were pooled and homogenised using a hand-held homogenizer using a procedure to extract RNA from the tissues. RNA extracted from the tissues was quantified and cDNA was subsequently generated using a RT kit. Abnormal/chronic wound tissues were from patients with abnormal/chronic leg ulcers. Acute wound tissues were obtained from patients with acute surgical wounds after undergoing excision of pilonidal disease. Normal tissues were from normal volunteer's normal skin. • 2. Analysis of nWASP gene transcripts was carried out using conventional and quantitative real time PCR (Icycler IQ, Bio-Rad) on human wound and skin tissues and cells. […] The study adopted the Ampliflor quantitation technology, in which one set of gene specific primers and a Uniprimer probes were used, in combination with quantitative PCR master mix. […] An internal standard was employed for quantitation purpose. […] The first was recorded immediately after plating of the cells into each well at 3 frequencies: 400 Hz, 4,000 Hz, and 40,000 Hz. […]

[2] = test system: HaCaT cells; test: ECIS cell migration assay (electric wounding) and micromotion; assay type: cell-based, human; details: for resistance following wounding (migration): measured at 400 Hz; for cell migration of transfected HaCaT cells: vs wild type HaCaT, electric wounding, ECIS
Excerpt: • 1. Cells and Human keratinocytes and melanoma Cells (HaCaT-from The German Cancer Institute/Cell Service, Germany and A431—from ATCC), human vascular endothelial cell, HECV (from Interlab, Italy) were used. Recombinant human HGF was from the research laboratory. nWASP inhibitors, Wiskostatin and 187-1 were from Merck Pharmaceuticals and TOCRIS, respectively. Tissue collection and preparation of RNA/cDNA bank from human wound/skin tissues. Fresh tissues from abnormal/chronic wounds (n=14), acute wounds (n=10) and normal skin from healthy volunteers (n=10) were collected under an approval from the local ethical committee (Ethical approval ID: 05/WSE03/92) and stored in −80° C. until use. Written informed consent was obtained from each patient who agreed for a biopsy to be taken. Tissues were frozen sectioned on a cryostat (Leica). A portion of the sections were kept for histological analysis. Approximate 20 sections were pooled and homogenised using a hand-held homogenizer using a procedure to extract RNA from the tissues. RNA extracted from the tissues was quantified and cDNA was subsequently generated using a RT kit. Abnormal/chronic wound tissues were from patients with abnormal/chronic leg ulcers. Acute wound tissues were obtained from patients with acute surgical wounds after undergoing excision of pilonidal disease. Normal tissues were from normal volunteer's normal skin. • 2. Analysis of nWASP gene transcripts was carried out using conventional and quantitative real time PCR (Icycler IQ, Bio-Rad) on human wound and skin tissues and cells. For conventional PCR, primers used were: NWASPF8 (5′agtccctatcactttcctc′3) (SEQ ID NO 1) and NWASPR8 (5′[…]′3) (SEQ ID NO 2) and NWASPF9 (5′[…]′3) (SEQ ID NO 3) and NWASPR9 (5′[…]′3) (SEQ ID NO 4). For Q-PCR primers used were nWASPF1 and NWASPZR1 (5′[…]′3) (SEQ ID NO 5) and (5′[…]′3) (SEQ ID NO 6). • 3. The study adopted the Ampliflor quantitation technology, in which one set of gene specific primers and a Uniprimer probes were used, in combination with quantitative PCR master mix. The reaction was carried out using ICycler^IQ (Bio-Rad). An internal standard was employed for quantitation purpose. In all the assays, GAPDH and actin were amplified and used as the house keeping controls. Levels of a specific gene was normalised to the expression level of GAPDH in the respective sample for example, nWASP, GAPDH and actin transcripts (mRNA) were measure in the same sample. nWASP was then normalised to GAPDH. • 4. Evaluation of cells response to wound stress after n-WASP is targeted. Here, an in vitro cell model, based on the ECIS system, was adopted. Briefly, cells were allowed to sit in the electric arrays and an 8E10 format was used. Cells in fixed number and fixed volume of culture medium were added into each of the respective wells, which had either control medium or a specific inhibitor to N-WASP, namely Wiskostatin or 187-1. In selected wells, a cell migration inducer, HGF was also included in the absence or presence of the nWASP inhibitors. Cells were investigated for the following functions: the adhesiveness to the matrix surface and the migration capacity. The first was recorded immediately after plating of the cells into each well at 3 frequencies: 400 Hz, 4,000 Hz, and 40,000 Hz. The frequencies were chosen following a frequency scanning (FIG. 3). Two main cell functions were thus tested here: the adhesiveness of the cells to matrix and cell migration. • 5. Creation of cell models. We have created a new cell model, based on a human keratinocyte cell line, HaCaT, which expressed high levels of n-WASP. By using anti-nWASP transgenes, we successfully knocked out the expression of n-WASP from the cells and subsequently used the cells in our testing. Briefly, the secondary structure (FIG. 2) of human nWASP was generated using Zuker's RNA mFold software. Three suitable sites for targeting within the nWASP mRNA were identified. […]

[3] = test system: HaCaT cells; test: growth of HaCaT cells; assay type: cell-based, human
[4] = test system: HECV cells; test: endothelial tubule forming assay, HECV wild type (negative for nWASP); assay type: cell-based, human; details: HECV cells negative for nWASP expression
[5] = in vivo tolerance test in CD-1 athymic mice; details: intraperitoneal, daily, 1 and 10 uM, two weeks
Method: (§2) First, the main tolerance tests were conducted using the CD-1 athymic mice (Charles River Laboratories), owing to their slow and steady rate of growth and easier to observe changes in the skin (hairless) and other possible side effects. Briefly, CD-1 of 4-6 weeks old, 20 g in weight, were housed in filter topped cages. […] Both compounds were given at […] final concentration in 100 ul in volume. […] CD-1 were observed daily, weighed twice weekly. An additional tolerance and efficacy test was carried out using the db/db strain.

[6] = tolerance in db/db strain; assay type: in vivo, db/db mice; details: administered systemically (IP), efficacy study
Method: as §2
(§3) The diabetic strain of db/db was obtained from Harlan. 4-6 weeks old with body weight at 20 g were used. […] Briefly, after being housed for a week, the db/db mice were first ear-pieced using an ear puncher, in order to create a wound (hole) of 1 mm in diameter. The following day after wound creation, all the db/db were weighed, wound photographed using a digital camera. Treatment was given systemically (by IP injection) or topically (by manually applying the compounds in gel into the wound area). Both treatments were given every other day. Images were obtained weekly. The size of the wounds was determined using an image analysis software. Data are given in two ways:
Wiskostatin was first dissolved in DMSO at concentration of 5 mg/ml. The DMSO solution was then gradually diluted in BSS in order to avoid precipitation. […]

[7] = test system: wound in db/db mice; test: in vivo efficacy test, wound healing (ear punch wound); details: for size of wounds vs control: after three weeks
Excerpt: as §3
1. the area of the wounds in pixels. Two sample student t test was used for statistical analysis. 2. change of the size of wound over the starting point calculated using: (area at a given point—area at the starting point)/(area of the starting point)×100. Bonferroni model was used for data analysis.
Wiskostatin was first dissolved in DMSO at concentration of 5 mg/ml. The DMSO solution was then gradually diluted in BSS in order to avoid precipitation. The solutions were prepared such that each 100 ul contained the correct amount of compounds and was aliquatted and stored at −20° C. until used. The compounds were injected every other day by the IP route. […] Treatment was given every other working day (Monday, Wednesday and Friday) and the images obtained on Wednesday.
For topical application, we used two conventional carrier gels (purchased from Pharmacy of University Hospital of Wales) that are currently used in wound care. […] For use, a small amount (150 ul) of the gel was applied to the wound area and gently rubbed in using fingers. Treatment was given every other working day (Monday, Wednesday and Friday) and the images obtained on Wednesday.

[8] = test system: HECV cells transfected and forced to express nWASP; test: endothelial tubule forming assay, HECV forced to express nWASP; assay type: cell-based, human; details: nWASP expressing HECV cells, after 48 hours
[9] = test system: nWASP mRNA; test: knock down of nWASP mRNA in HaCaT cells by anti-nWASP transgenes (RT-PCR); assay type: cell-based, human; details: HaCaT cells after transfection (electroporation)
Excerpt: as §1, with “Written informed consent was obtained from each patient who agreed for a biopsy to be taken. Tissues were frozen sectioned on a cryostat (Leica). A portion of the sections were kept for histological analysis. Approximate 20 sections were pooled and homogenised using a hand-held homogenizer using a procedure to extract RNA from the tissues.” left out, “Abnormal/chronic wound tissues were from patients with abnormal/chronic leg ulcers. Acute wound tissues were obtained from patients with acute surgical wounds after undergoing excision of pilonidal disease. Normal tissues were from normal volunteer's normal skin. • 2.” left out

HGF: recombinant human HGF, cell migration inducer / positive control
adhesiveness of HaCaT cells ([1]; HGF 40 ng/ml alone vs control cells): increased the adhesiveness
migration of control HaCaT cells ([2]; HGF 40 ng/ml): increased the migration of control HaCaT cells
migration of nWASP transgene carrying HaCaT cells ([2]; HGF 40 ng/ml): some limited effect

CN(C)C[C@H](O)Cn1c2ccc(Br)cc2c2cc(Br)ccc21 (racemic) [Wiskostatin]
adhesiveness of HaCaT cells to matrix surface ([1]; Wiskostatin 1, 10, 100 nM, 400, 4,000, 40,000 Hz, particularly at 40,000 Hz): increased the adhesiveness
HGF-induced adhesiveness of HaCaT cells ([1]; with HGF 40 ng/ml, Wiskostatin 1, 10, 100 nM): further increased the adhesiveness
resistance following wounding (migration) ([2]; 1 nM): rapid rise of resistance
resistance following wounding (migration) ([2]; 10 nM): rapid rise of resistance
migration of HaCaT cells ([2]; electric wounding assay): Increased the Migration
growth of HaCaT cells [3]: limited inhibitory effect on the growth and only at a high concentration
effective concentrations relative to those causing toxicity and growth changes ([3]; all effects on cell functions): far below those that may cause toxicity and growth changes
tubule formation [4]: neither 187-1 nor Wiskostatin had a major impact
tolerability [5]: Well Tolerated
side effects [6]: without Producing any Side Effects
size of wounds vs control ([7]; Wiskostatin systemic 1 μM, p=0.017): significantly reduced the size of the wounds; also recorded: significant reduction of the size of wound
size of wounds vs control ([7]; Wiskostatin systemic 10 μM, p=0.04): significantly reduced the size of the wounds; also recorded: significant reduction of the size of wound
size of wounds vs control ([7]; Wiskostatin topical-A gel, p=0.044): significant effect
size of wounds vs control ([7]; Wiskostatin topical-B gel, p=0.044): significant effect
wound healing ([7]; administered systemically (IP), every other day): Significantly Accelerated Wound Healing
wound healing ([7]; administered topically in gel): Significant Effect

Wiskostatin
tubule forming [8]: strong stimulatory effect on tubule forming

B1: transgene-2: anti-nWASP antisense-hammerhead ribozyme/RNA transgene, SEQ ID NO 18, cloned into pEF6/V5/His TOPO (nucleic acid, listed as Homo sapiens)
DNA: CTGCAGACAAGCAACACCACTGCACTTCTTTCTGATGAGTCCGTGAGGACGAAACCACATACAGTTCCGATCTGCTGCATATAACTAGT
knocking down nWASP mRNA/transcript [9]: active in knocking down; also recorded: highly active
cell migration of transfected HaCaT cells [2]: dramatic increase in cell migration

B2: transgene-1: anti-nWASP antisense-hammerhead ribozyme/RNA transgene, SEQ ID NO 17, cloned into pEF6/V5/His TOPO (nucleic acid, listed as Homo sapiens)
DNA: CTGCAGGAGTTCTTTGACCACATACAGTTCCCTGATGAGTCCGTGAGGACGAAATCTGCTGCATATAACTGCACCACACTAGT
knocking down nWASP mRNA/transcript [9]: active in knocking down

B3: transgene-3: anti-nWASP antisense-hammerhead ribozyme/RNA transgene, SEQ ID NO 19, cloned into pEF6/V5/His TOPO (nucleic acid, listed as Homo sapiens)
DNA: CTGCAGGTGCAGCTGTGGGAGCTCTTCTGATGAGTCCGTGAGGACGAAAAGGTGGTGGGGGAGGAGCGCCTCTTCCCCTAGCCTAGT
cell migration of transfected HaCaT cells [2]: dramatic increase in cell migration
